Test results from patent publication US20140221480A1, “METHODS OF MANAGING BRAIN INFLAMMATION” (EMORY UNIVERSITY, priority 2013, published 2014).
Entries after “also recorded” stand apart in the source; their conditions may differ. Like-named read-outs stand apart in the source and are kept apart here.

How the values were obtained:
Format in all cases: in vivo, mice (C57BL/6J)
[1] = Concentration of TAK-242 in plasma and brain tissue after i.p. injection (LC-MS/MS); conditions: for concentration at 3 h / concentration at 8 h / concentration at 24 h: male, C57BL/6J, mouse, ip, 3 mg/kg body weight; for concentration at 3 h: 3 hrs after i.p. injection; for concentration at 8 h: 8 hrs after i.p. injection; for concentration at 24 h: 24 hrs after i.p. injection
Source text: (§1) Animals—Fifty male mice (C57BL/6J, body weight 25˜30 g) were obtained from Jackson Laboratory and maintained in the Division of Laboratory Animal Resources at Emory University”. The experiments outlined in this manuscript conform to the Guide for the Care and Use of Laboratory Animals published by the National Institutes of Health. The animal care and experimental protocols were approved by the Emory University Committee on Animal Care. Animals were randomly assigned to four groups: sham control (S, n=4, for molecular analysis), focal cerebral ischemia/reperfusion (I/R, n=16; 5 for molecular analysis), Sham+TAK-242 (S-T, n=4, for molecular analysis), and I/R+TAK-242 (I/R-T, n=16; 5 for molecular analysis). Ten mice were used for the measurement of TAK-242 concentration in plasma and brain tissue.
(§2) Focal cerebral ischemia/reperfusion—Focal cerebral FR was induced by occlusion of the middle cerebral artery (MCAO) on the left side. Mice were subjected to anesthesia by 5.0% isoflurane and maintained by inhalation of 1.5% to 2% isoflurane driven by 100% oxygen flow. Mice were ventilated (110 breaths/min with volume 0.5 ml) and body temperature was regulated at 37.0° C. Heart rate and PO2 were monitored during surgery. Following the skin incision, the left common carotid artery (CCA), the external carotid artery (ECA), and the internal carotid artery (ICA) were carefully exposed. Microvascular aneurysm clips were applied to the left CCA and the ICA. A coated 6-0 filament (6023PK, Doccol Corp. CA, USA) was introduced into an arteriotomy hole, fed distally into the ICA and advanced 11 mm from the carotid bifurcation. The ICA clamp was removed and focal cerebral ischemia started. After ischemia for 60 min, the filament and the CCA clamp were gently removed (reperfusion starts). The collar suture at the base of the ECA stump was tightened. The skin was closed, anesthesia discontinued, and the animal allowed to recover in a pre-warmed cage. Control mice underwent a neck dissection and coagulation of the external carotid artery, but no occlusion of the MCA. Ischemia and reperfusion were confirmed by rCBF.
(§3) TAK-242 treatment—TAK-242 was dissolved in DMSO and then diluted in sterile endotoxin-free water and injected intraperitoneally (i.p., 3 mg/kg body weight) 1 hr after MCAO or sham surgical operation.
Measurement of TAK242 concentration in plasma and brain tissue—Three, 8 or 24 hours after the injection of TAK242, the mice were anesthetized with 5.0% isoflurane driven by 100% oxygen flow. Blood (0.95 ml) was drawn from the left ventricle and immediately mixed with 0.05 mL sodium citrate (CCS). The samples were incubated at room temperature for 30 min and centrifuged at 8000 rpm. The plasma was collected and stored at −80° C. for future use Immediately after the blood was drawn, the mice were perfused with ice-cold normal saline via the ascending aorta until the perfusion buffer was clear from the right atrium. The brains were removed and weighed. Brain tissues were homogenized with buffer, and centrifuged at 14000 rpm for 10 min. Supernatants were collected and stored at −80° C. The concentrations of TAK-242 were detected by Intertek (USA) using Liquid Chromatography with Tandem Mass Spectrometry Detection (LC-MS/MS). Briefly, TAK-242 and internal standard (Bromfenac) were extracted from 50 μL of mouse plasma or brain homogenate by liquid-liquid extraction using methyltertiary-butyl ether (MTBE). After evaporation to dryness and reconstitution, the extracts were analyzed by LC-MS/MS. Run times were approximately 5 min. The Lower Limit of Quantitation (LLOQ) for TAK-242 is 0.5 ng/ml for plasma and 2 ng/g for brain homogenate.

[2] = test system: mice subjected to acute cerebral I/R; experiment: Assessment of cerebral infarct size by TTC staining after focal cerebral ischemia/reperfusion (MCAO); conditions: 24 hrs after cerebral I/R, 3 mg/kg i.p. 1 hr after ischemia
Source text: Animals—Fifty male mice (C57BL/6J, body weight 25˜30 g) were obtained from Jackson Laboratory and maintained in the Division of Laboratory Animal Resources at Emory University”. The experiments outlined in this manuscript conform to the Guide for the Care and Use of Laboratory Animals published by the National Institutes of Health. The animal care and experimental protocols were approved by the Emory University Committee on Animal Care. […]
Focal cerebral ischemia/reperfusion—Focal cerebral FR was induced by occlusion of the middle cerebral artery (MCAO) on the left side. […] Heart rate and PO2 were monitored during surgery. […]
Assessment of cerebral infarct size—Twenty-four hours after FR, mice were sacrificed and perfused with ice-cold phosphate buffered saline (PBS) via the ascending aorta. […] The infarct areas were traced and quantified with ImageJ analysis system. […] The area of infarction and the area of both hemispheres were calculated for each brain slice. An edema index was calculated by dividing the total volume of the left hemisphere by the total volume of the right hemisphere. The actual infarct volume adjusted for edema was calculated by dividing the infarct volume by the edema index. Infarct volumes are expressed as percentage of the total brain volume±S.E.M.

[3] = test system: mice subjected to acute cerebral I/R; experiment: Evaluation of neurological score after focal cerebral ischemia/reperfusion (MCAO); conditions: 24 hrs after cerebral I/R; 3 mg/kg i.p. 1 hr after ischemia; scale 0 to 15, 15 perfect; control group 4.38
Source text: as §1
Focal cerebral ischemia/reperfusion—Focal cerebral FR was induced by occlusion of the middle cerebral artery (MCAO) on the left side. Mice were subjected to anesthesia by 5.0% isoflurane and maintained by inhalation of 1.5% to 2% isoflurane driven by 100% oxygen flow. Mice were ventilated (110 breaths/min with volume 0.5 ml) and body temperature was regulated at 37.0° C. Heart rate and PO2 were monitored during surgery. […]
Evaluation of neurological score—Mice were scored by a blinded investigator. […]

[4] = test system: inflammatory cytokines in ischemic brain; experiment: Antibody array of inflammatory cytokines in ischemic brain tissue; conditions: 6 hrs after cerebral I/R; 3 mg/kg i.p.; vs untreated controls, p<0.05
Source text: as §1, §2, §3
Antibody array—Proteins were prepared from ischemic cerebral hemispheres. Forty inflammatory cytokines were analyzed by antibody arrays (RayBio® Cytokine Antibody Arrays—Mouse Inflammation Antibody Array G Series I). Briefly, the glass chips were air-dried for 60 min and assembled into an incubation chamber and incubation frame. […] The signal data was collected and analyzed by software from RayBiotech, Inc. (Atlanta, Ga., USA). […]

[5] = hemisphere contralateral to ischemia, brain tissue, read-out: concentration of TAK-242 in hemisphere contralateral to ischemia
[6] = ischemic (ipsilateral) hemisphere, brain tissue, read-out: concentration of TAK-242 in ischemic (ipsilateral) hemisphere
[7] = plasma, mice with tMCAO, read-out: concentration of TAK-242 in plasma

CCOC(=O)C1=CCCC[C@H]1S(=O)(=O)Nc1ccc(F)cc1Cl [TAK-242, ethyl (6R)-6-[N-(2-chloro-4-fluorophenyl)sulfamoyl]cyclohex-1-ene-1-carboxylate]
ability to pass through the blood brain barrier (BBB) ([1]; 3 mg/kg i.p., mice): passes the blood-brain barrier; also recorded: can pass through the BBB
concentration in ischemic hemisphere compared with contralateral hemisphere ([1]; 3 mg/kg i.p., p<0.05): significantly higher
concentration at 3 h [1, 5]: 14.2 ng/mL
concentration at 8 h [1, 5]: 15.1 ng/mL
concentration at 24 h [1, 5]: 17.5 ng/mL
concentration at 3 h [1, 6]: 26.1 ng/mL
concentration at 8 h [1, 6]: 26.4 ng/mL
concentration at 24 h [1, 6]: 25 ng/mL
concentration at 3 h [1, 7]: 52 ng/mL
concentration at 8 h [1, 7]: 54.1 ng/mL
concentration at 24 h [1, 7]: 22.6 ng/mL
brain infarct size ([2]; control group 21.3%): 12.5%
reduction of brain infarct size compared to control mice ([2]; p<0.05): 41%
neurological score [3]: 6.73
level of MCP-1 in brain tissue [4]: significantly reduced
level of MIP-1γ in brain tissue [4]: significantly reduced
level of TIMP-1 in brain tissue [4]: significantly reduced
level of sTNF RII in brain tissue [4]: significantly reduced
